Tested on: Plasmodium falciparum
Assay: GSK_TCMDC: Inhibition of Plasmodium falciparum 3D7 in whole erythrocytes, using parasite LDH activity as an index of growth.
Format: functional, organism-based

## CCCCCCCNC(=O)NCC1CCCN(CCCCCNC(=O)/C=C/c2ccc(Cl)c(Cl)c2)C1 (configuration not stated)
Plasmodium falciparum, 3D7
  XC50: 1040 nM

## N=C(N)Nc1ccc(OCCCCCOc2ccc(NC(=N)N)cc2Br)c(Br)c1
Plasmodium falciparum, 3D7
  XC50: 262 nM

## CC(Cc1ccc(OCc2ccc(CCN(C)C)cc2)cc1)NCCc1cccc(Cl)c1 (configuration not stated)
Plasmodium falciparum, 3D7
  XC50: 769 nM

## CC(C)=C(C(=O)OCc1ccccc1)N1C(=O)[C@@H](NC(c2ccccc2)(c2ccccc2)c2ccccc2)[C@H]1[S+]([O-])CC(=O)OC(C)(C)C (some centres not stated)
Plasmodium falciparum, 3D7
  XC50: 1020 nM

## O=C(NCCCCN1CCC(c2ccc3c(c2OCCO)CCCC3)CC1)c1ccc2oc(-c3ccc(C(F)(F)F)cc3)cc2c1
Plasmodium falciparum, 3D7
  XC50: 340 nM

## Cc1ccc2[nH]c(NC#N)nc2c1
Plasmodium falciparum, 3D7
  XC50: 1150 nM

## COc1ccnc(NCCCNCc2cn(S(=O)(=O)c3ccccc3)c3ccccc23)c1
Plasmodium falciparum, 3D7
  XC50: 790 nM

## CN(C)CCCNC(=O)c1ccccc1Sc1ccccc1C#N
Plasmodium falciparum, 3D7
  XC50: 1140 nM

## CN(C)Cc1c(O)ccc2[nH]c(-c3ccc(F)cc3F)nc12
Plasmodium falciparum, 3D7
  XC50: 1300 nM

## N#Cc1ccc2c(c1)CN(CCC1CCC(NC(=O)c3cc4cnccc4[nH]3)CC1)CC2 (configuration not stated)
Plasmodium falciparum, 3D7
  XC50: 801 nM

## O=C(/C=C/c1ccc(F)cc1)NC1CCC(CCN2CCCN(c3ccc(C(F)(F)F)cn3)CC2)CC1 (configuration not stated)
Plasmodium falciparum, 3D7
  XC50: 1080 nM

## O=C(Nc1cc(Cl)cc(Cl)c1)c1cc(Cl)c(=O)n(Cc2ccc(Cl)cc2)c1
Plasmodium falciparum, 3D7
  XC50: 863 nM

## O=c1cc(NCCCNCc2ccc(C(F)(F)F)c(F)c2)[nH]c2ccccc12
Plasmodium falciparum, 3D7
  XC50: 1190 nM

## CN(C)S(=O)(=O)c1ccc(C(=O)N(c2nc(-c3ccccc3)cs2)C2CCCCC2)cc1
Plasmodium falciparum, 3D7
  XC50: 760 nM

## O=C(Nc1ccc(N2CCCN(Cc3cccc(F)c3)CC2)cc1)c1ccc(F)cc1
Plasmodium falciparum, 3D7
  XC50: 837 nM

## Cc1ccccc1C1CCN(C2CCC(NC(=O)/C=C/c3cc(F)cc(F)c3)CC2)CC1 (configuration not stated)
Plasmodium falciparum, 3D7
  XC50: 833 nM

## Cn1cnc(CCNC(=O)c2ccc(-c3cccc(-c4nc5ccccc5[nH]4)c3)cc2)c1
Plasmodium falciparum, 3D7
  XC50: 1100 nM

## COc1ccc(-c2cc(C(=O)Nc3ccc4[nH]c(-c5ccccc5)nc4c3)[nH]n2)cc1
Plasmodium falciparum, 3D7
  XC50: 696 nM

## O=C(/C=C/c1ccc(Cl)c(Cl)c1)NCCCCCN1C2CCC1CC(c1c[nH]c3ccc(O)cc13)C2 (configuration not stated)
  XC50: 879 nM
Plasmodium falciparum, 3D7
  XC50: 998 nM

## COc1ccc(CCNCCCCCCNCCc2ccc(-c3ccccc3)cc2)cc1OC
Plasmodium falciparum, 3D7
  XC50: 958 nM

## Cc1cccc(C)c1CNc1ccnc2cc(Br)ccc12
Plasmodium falciparum, 3D7
  XC50: 172 nM

## Cc1c(C)c2c(c(C)c1O)CC[C@@](C)(C(=O)N1CCC(CN3CCC(c4c[nH]c5ccccc45)CC3)CC1)O2
Plasmodium falciparum, 3D7
  XC50: 657 nM

## COc1cc(NC(=O)/C=C/c2cccc3ccoc23)ccc1OCCN(C(C)C)C(C)C
Plasmodium falciparum, 3D7
  XC50: 1040 nM

## Cc1cccc(C(=O)Nc2ccc(N3CCCN(Cc4cccc(O)c4)CC3)cc2)c1
Plasmodium falciparum, 3D7
  XC50: 1420 nM

## CCCCCC(=O)NCC(NCCCNc1cc(=O)c2ccccc2[nH]1)c1cc(Br)cc(Br)c1 (configuration not stated)
Plasmodium falciparum, 3D7
  XC50: 652 nM

## COCCNCc1nc(-c2ccc3c(Nc4ccc(F)c(O)c4)ccnc3c2)cs1
Plasmodium falciparum, 3D7
  XC50: 695 nM

## Cc1cc(NCCC(=O)NCCOc2ccccc2)nc(NCCc2ccc(F)cc2)n1
Plasmodium falciparum, 3D7
  XC50: 940 nM

## COc1ccc2nc(C)cc(N/N=C/c3ccccc3[N+](=O)[O-])c2c1
Plasmodium falciparum, 3D7
  XC50: 177 nM

## Cc1cccc(CN2CCC(Oc3ccc(NC(=O)c4cccs4)cc3Cl)CC2)n1
Plasmodium falciparum, 3D7
  XC50: 844 nM

## Cc1cc(CNCCCCCNCc2ccc(Cl)cc2)ccc1O
Plasmodium falciparum, 3D7
  XC50: 706 nM

## CON=Cc1sc(CNCCCN=c2cc(O)c3ccccc3[nH]2)c(C)c1Br
Plasmodium falciparum, 3D7
  XC50: 962 nM

## Nc1ccc2[nH]cc(C3CCN(CCC4CCN(C(=O)/C=C/c5ccc(Cl)c(Cl)c5)CC4)CC3)c2n1
Plasmodium falciparum, 3D7
  XC50: 737 nM

## NC1CCN(Cc2ccc(-c3cccc(-c4nc5ccccc5[nH]4)c3)cc2)C1 (configuration not stated)
Plasmodium falciparum, 3D7
  XC50: 849 nM

## CC(C)c1ccc(Cn2cc(-c3ccncc3)c3cc(OCc4ccccc4)ccc32)cc1
Plasmodium falciparum, 3D7
  XC50: 706 nM

## c1ccc(-c2ccc3c(Nc4ccc5[nH]ccc5c4)ccnc3c2)nc1
Plasmodium falciparum, 3D7
  XC50: 943 nM

## CCN(c1ccccc1)S(=O)(=O)c1ccc(OC)c(NC(=O)c2cccc(C(F)(F)F)c2)c1
Plasmodium falciparum, 3D7
  XC50: 881 nM

## CCC(C)c1cnc2nc(N)nc(N)c2c1C (configuration not stated)
Plasmodium falciparum, 3D7
  XC50: 444 nM

## CNCCCN(C)C(=O)Oc1c(Br)c(C)nc(C)c1-c1ccc(Oc2ccc(OC(F)(F)F)cc2)cc1
Plasmodium falciparum, 3D7
  XC50: 386 nM

## COc1ccc2ncc(F)c(CCN3CCC4(CC3)COC(c3cc5c(cn3)OCCO5)=N4)c2n1
Plasmodium falciparum, 3D7
  XC50: 216 nM

## O=S(=O)(NCCN1CCCC1)c1cccc(-c2cccc(CNCc3ccsc3)c2)c1
Plasmodium falciparum, 3D7
  XC50: 872 nM

## COCCNCc1cccc(-c2cc3nccc(Nc4ccc(Oc5ccccc5)cc4)c3cc2Cl)c1
Plasmodium falciparum, 3D7
  XC50: 1380 nM

## CN(C(=O)OCc1ccccc1)C1CCC(CCN2CCC3(CC2)C(=O)NCN3c2cccc(C(F)(F)F)c2)(c2ccccc2)CC1 (configuration not stated)
Plasmodium falciparum, 3D7
  XC50: 1180 nM

## CCCCCc1cc(O)c2c(c1)OC(C)(C)CC2C1=CCN(Cc2cnc3ccccc3c2)CC1 (configuration not stated)
Plasmodium falciparum, 3D7
  XC50: 276 nM

## O=C(/C=C/c1cccc(Cl)c1)NCCCCCN1CCC(c2c[nH]c3ccccc23)CC1
Plasmodium falciparum, 3D7
  XC50: 988 nM

## CC(C)(C)c1ccc(Cc2cccc3nc(N)nc(N)c23)cc1
Plasmodium falciparum, 3D7
  XC50: 834 nM

## CN(C)Cc1ccc(-c2ccc3c(Nc4ccc(Cl)cc4F)ccnc3c2)o1
Plasmodium falciparum, 3D7
  XC50: 241 nM

## Nc1ccc(-c2csc(Nc3ccncc3)n2)cc1
Plasmodium falciparum, 3D7
  XC50: 939 nM

## CC(C)OC(=O)c1ccc(NC(=O)N[C@@H](Cc2ccc(O)cc2)C(=O)NC2CCC(CCN3C4CCC3c3ccccc34)CC2)cc1 (some centres not stated)
Plasmodium falciparum, 3D7
  XC50: 829 nM

## CC(C)c1sc(N2CCN(C)CC2)nc1C(=O)Nc1ccc(F)cc1C(F)(F)F
Plasmodium falciparum, 3D7
  XC50: 190 nM

## COc1ccc2nccc(NC(=O)OC3CCC(NCc4ccc5c(n4)NC(=O)CS5)CC3)c2c1 (configuration not stated)
Plasmodium falciparum, 3D7
  XC50: 924 nM

## CN(C)CCN(C)Cc1ccc(-c2cccc(-c3nc4ccccc4[nH]3)c2)cc1
Plasmodium falciparum, 3D7
  XC50: 751 nM

## CCCNc1ccc(-c2cc(C(N)=O)c3[nH]cc(C4CCN(S(=O)(=O)CC)CC4)c3c2)cn1
Plasmodium falciparum, 3D7
  XC50: 817 nM

## O=c1c2sc(-c3ccc(Cl)cc3)cc2ncn1Cc1ccc(OCCN2CCCC2)c2ccccc12
Plasmodium falciparum, 3D7
  XC50: 252 nM

## O=C(Nc1cccc(Cl)c1)N(CCCn1ccnc1)Cc1csc(-c2ccc(CNCc3ccccc3)cc2)n1
Plasmodium falciparum, 3D7
  XC50: 538 nM

## Cc1cccc2nc(-c3ccc(-c4cccc(CN5CCN(CCO)CC5)c4)cc3)[nH]c12
Plasmodium falciparum, 3D7
  XC50: 730 nM

## Oc1cccc(Nc2ccnc3cc(-c4ccccn4)ccc23)c1
Plasmodium falciparum, 3D7
  XC50: 744 nM

## COc1cccc(Nc2nccc(-c3c(-c4cccc(NC(=O)c5c(F)cccc5F)c4)nn4ccccc34)n2)c1
Plasmodium falciparum, 3D7
  XC50: 178 nM

## CC(CN(C)C)C(=O)Nc1ccc(-c2cccc(-c3nc4cc(C(F)(F)F)ccc4[nH]3)c2)cc1 (configuration not stated)
Plasmodium falciparum, 3D7
  XC50: 210 nM

## CN(C)c1cc(NC(=O)Nc2ccc(SC(F)(F)F)cc2)c2ccccc2n1
Plasmodium falciparum, 3D7
  XC50: 140 nM

## O=C(Nc1ccc(Oc2ccccc2)cc1)N1CCC(CN2CCC(c3c[nH]c4ccccc34)CC2)CC1
Plasmodium falciparum, 3D7
  XC50: 606 nM

## CN(C)CCN(Cc1ccc(-c2ccc(CNCCc3ccccc3)cc2)nc1)C(=O)CCC1CCCC1
Plasmodium falciparum, 3D7
  XC50: 799 nM

## CCN(CC)CCN(Cc1ccc(-c2ccc(C#N)cc2)cc1)C(=O)Cn1c(CCc2cccc(F)c2F)nc(=O)c2ccccc21
Plasmodium falciparum, 3D7
  XC50: 5.97 nM

## CN(C)C(C)(C)CN(Cc1ccc(-c2ccc(C(F)(F)F)cc2)cc1)C(=O)Cn1c(CCc2cccc(F)c2F)nc(=O)c2ccccc21
Plasmodium falciparum, 3D7
  XC50: 827 nM

## COc1cc(OC)c(NC(=O)C2c3ccccc3C(=O)N(C)C2c2cccs2)cc1Cl (configuration not stated)
Plasmodium falciparum, 3D7
  XC50: 764 nM

## CCc1cc(I)c2c(c1)C(NCCCNc1cc(=O)c3ccccc3[nH]1)CCN2 (configuration not stated)
Plasmodium falciparum, 3D7
  XC50: 887 nM

## COc1cc(C2CCCCC2)c(OC)cc1CC1c2cc(O)c(Cl)cc2CCN1C (configuration not stated)
Plasmodium falciparum, 3D7
  XC50: 449 nM

## COc1ccc2nc3cc(Cl)ccc3c(NCCCO)c2c1
Plasmodium falciparum, 3D7
  XC50: 783 nM

## CC1(C)N=C(N)N=C(N)N1c1ccc2ccccc2c1
Plasmodium falciparum, 3D7
  XC50: 53.8 nM

## CC(=O)c1c(CC(=O)O)c2ccccc2n1O
Plasmodium falciparum, 3D7
  XC50: 735 nM

## O=C(Nc1cccc(C(F)(F)F)c1)c1cccc(S(=O)(=O)NCC2CCN(CC3CCCCC3)CC2)c1
Plasmodium falciparum, 3D7
  XC50: 1470 nM

## Cc1noc(-c2ccc(O)cc2O)c1-c1ccc2c(c1)OCCCO2
Plasmodium falciparum, 3D7
  XC50: 892 nM

## O=C(Nc1cn(-c2ccc(OCc3cccc(F)c3)c(Cl)c2)c2ncncc12)c1ccncc1
Plasmodium falciparum, 3D7
  XC50: 171 nM

## O=C(NCc1cccc(OC(F)(F)F)c1)c1cnc2c(c1)nc(-c1c[nH]c(-c3ccccc3)n1)n2CCc1c[nH]cn1
Plasmodium falciparum, 3D7
  XC50: 683 nM

## Clc1ccc2nc(-c3cccnc3)[nH]c2c1
Plasmodium falciparum, 3D7
  XC50: 38.4 nM

## S=C(NCC1CCCCC1)NC1CCC(CN2CCC(c3c[nH]c4ccccc34)CC2)CC1 (configuration not stated)
Plasmodium falciparum, 3D7
  XC50: 1110 nM

## CCc1c(CCNCCCCCCNCCc2ccc([N+](=O)[O-])cc2)ccc(O)c1O
Plasmodium falciparum, 3D7
  XC50: 783 nM

## COC(=O)c1sc(-c2ccc(Cl)cc2)cc1N(CCCN1CCC(N2CCCCC2)CC1)S(=O)(=O)c1ccc(C)cc1
Plasmodium falciparum, 3D7
  XC50: 744 nM

## CCc1ccccc1N1CCN(CCCC(=O)c2ccc(NC(=O)c3cc(Cl)cc(Cl)c3)cc2)CC1
Plasmodium falciparum, 3D7
  XC50: 290 nM

## Cc1cccc2nc(-c3ccc(-c4ccc(CN5CCN(c6ccc(C#N)cn6)CC5)cc4)s3)[nH]c12
Plasmodium falciparum, 3D7
  XC50: 1130 nM

## COc1cc2nc(N(C)Cc3cccc(I)c3)nc(N)c2cc1OC
Plasmodium falciparum, 3D7
  XC50: 863 nM

## O=C(/C=C/c1ccc(Cl)cc1)NCCCCCN1CCC(C(=O)Nc2ccc(Cl)cc2)CC1
Plasmodium falciparum, 3D7
  XC50: 832 nM

## CN1CCc2cc(NS(=O)(=O)c3ccc(-c4ccc(Cl)cc4)cc3)c(OCCCN3CCCCC3)cc2CC1
Plasmodium falciparum, 3D7
  XC50: 961 nM

## CC(C)c1ccc(S(=O)(=O)Nc2cccc(CCN3CCC(N4CCCCC4)CC3)c2)cc1
Plasmodium falciparum, 3D7
  XC50: 1120 nM

## Fc1cc(Cl)ccc1Nc1ccnc2cc(-c3ccc(CN4CCNCC4)o3)ccc12
Plasmodium falciparum, 3D7
  XC50: 277 nM

## CC(CN1CCN(C)CC1)C(=O)Nc1ccc(-c2cccc(-c3nc4ccccc4[nH]3)c2)cc1 (configuration not stated)
Plasmodium falciparum, 3D7
  XC50: 566 nM

## CN1CCN(CCCN(Cc2cccc(-c3ccc(CNC4CCCC4)cc3)c2)C(=O)CCC2CCCC2)CC1
Plasmodium falciparum, 3D7
  XC50: 761 nM

— ChEMBL document CHEMBL1157539, “Thousands of chemical starting points for antimalarial lead identification” (Nature, 2010)
